pKi: −log10 of the molar value.
Assays:
[1] = target: T1, human H3 receptor (Homo sapiens, UniProt Q9Y5N1); experiment: H3 receptor binding, cloned human H3 receptor stably expressed in SK-N-MC cells; conditions: average of results
T1 construct: expressed in transfected cells
Experimental: (§1) Binding of compounds to the cloned human and rat H3 receptors, stably expressed in SK-N-MC cells, was performed as described by Barbier, A. J. et al. (Br. J. Pharmacol. 2004, 143(5), 649-661). Data for compounds tested in these assays are presented in Table 1 (human) and Table 2 (rat), as an average of the results obtained.

[2] = target: T2, rat H3 receptor (Rattus norvegicus, UniProt Q9QYN8); experiment: Cyclic AMP accumulation, SK-N-MC subline with reporter construct and rat H3 receptor; format: cell-based; conditions: cAMP accumulation, SK-N-MC reporter cells expressing rat H3; average of results; read-out: Rat pA2 (converted)
T2 construct: expressed in transfected cells
T2 sequence (Q9QYN8 whole entry): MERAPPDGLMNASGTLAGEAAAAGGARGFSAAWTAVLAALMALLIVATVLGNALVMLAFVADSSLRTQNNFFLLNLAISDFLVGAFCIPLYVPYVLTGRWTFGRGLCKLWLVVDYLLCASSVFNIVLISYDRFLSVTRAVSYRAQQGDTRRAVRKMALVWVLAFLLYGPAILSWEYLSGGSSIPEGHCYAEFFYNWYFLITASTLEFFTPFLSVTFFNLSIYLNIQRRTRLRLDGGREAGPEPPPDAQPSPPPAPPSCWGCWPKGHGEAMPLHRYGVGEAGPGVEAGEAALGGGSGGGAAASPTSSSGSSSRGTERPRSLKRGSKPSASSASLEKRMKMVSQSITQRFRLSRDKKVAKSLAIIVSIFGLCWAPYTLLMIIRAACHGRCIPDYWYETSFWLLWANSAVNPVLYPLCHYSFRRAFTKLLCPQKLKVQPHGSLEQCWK
Text: (§2) Sublines of SK-N-MC cells were created that expressed a reporter construct and either the human or rat H3 receptor. The pA2 values were obtained as described by Barbier et al. (2004). Data for compounds tested in these assays are presented in Table 3, as an average of the results obtained (NT=not tested).

[3] = target: T2, rat H3 receptor; experiment: H3 receptor binding, cloned rat H3 receptor stably expressed in SK-N-MC cells; conditions: average of results
Experimental: as §1

[4] = target: T1, human H3 receptor; experiment: Cyclic AMP accumulation, SK-N-MC subline with reporter construct and human H3 receptor; format: cell-based; conditions: cAMP accumulation, SK-N-MC reporter cells expressing human H3; average of results; read-out: Human pA2 (converted)
Text: as §2

T1 sequence (Q9Y5N1 whole entry): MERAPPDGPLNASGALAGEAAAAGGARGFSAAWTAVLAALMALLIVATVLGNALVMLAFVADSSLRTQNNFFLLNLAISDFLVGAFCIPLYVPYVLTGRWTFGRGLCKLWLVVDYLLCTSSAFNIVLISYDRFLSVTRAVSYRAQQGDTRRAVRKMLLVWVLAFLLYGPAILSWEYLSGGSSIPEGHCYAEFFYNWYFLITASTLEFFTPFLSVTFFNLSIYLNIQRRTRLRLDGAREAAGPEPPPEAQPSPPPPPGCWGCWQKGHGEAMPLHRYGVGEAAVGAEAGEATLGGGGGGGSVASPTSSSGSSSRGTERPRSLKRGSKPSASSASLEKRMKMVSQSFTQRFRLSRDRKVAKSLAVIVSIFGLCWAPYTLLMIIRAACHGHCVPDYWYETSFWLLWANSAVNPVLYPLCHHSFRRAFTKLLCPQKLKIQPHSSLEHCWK

SMILES	pKi [1]	Kb [2]	pKi [3]	Kb [4]
CC(C)N1CCN(C(=O)c2ccc(CO)cc2)CC1 [Example 6, (4-Hydroxymethyl-phenyl)-(4-isopropyl-piperazin-1-yl)-methanone]	6.79	295 nM		
CC(C)N1CCCN(C(=O)c2ccc(C(O)C3CCCCC3)cc2)CC1 (stereo not drawn) [Example 7, [4-(Cyclohexyl-hydroxy-methyl)-phenyl]-(4-isopropyl-[1,4]diazepan-1-yl)-methanone]	8.70	17.4 nM	7.12	0.871 nM
CC(C)N1CCCN(C(=O)c2ccc(C(O)c3ccccc3)cc2)CC1 (stereo not drawn) [Example 11, [4-(Hydroxy-phenyl-methyl)-phenyl]-(4-isopropyl-[1,4]diazepan-1-yl)-methanone]	8.70		7.11	
CCC(O)c1ccc(C(=O)N2CCCN(C3CCC3)CC2)cc1 (stereo not drawn) [Example 19, (4-Cyclobutyl-[1,4]diazepan-1-yl)-[4-(1-hydroxy-propyl)-phenyl]-methanone]	9.00	3.31 nM		0.182 nM
O=C(c1ccc(C(O)C2CCCCC2)cc1)N1CCCN(C2CC2)CC1 (stereo not drawn) [Example 27, [4-(Cyclohexyl-hydroxy-methyl)-phenyl]-(4-cyclopropyl-[1,4]diazepan-1-yl)-methanone]	9.00	6.92 nM	7.43	0.955 nM
O=C(c1ccc(C(=O)N2CCCN(C3CC3)CC2)cc1)C1CCCCC1 [Example 29, (4-Cyclohexanecarbonyl-phenyl)-(4-cyclopropyl-[1,4]diazepan-1-yl)-methanone]	9.00	6.92 nM		0.912 nM
O=C(c1ccc(C(O)c2ccccc2)cc1)N1CCCN(C2CC2)CC1 (stereo not drawn) [Example 30, (4-Cyclopropyl-[1,4]diazepan-1-yl)-[4-(hydroxy-phenyl-methyl)-phenyl]-methanone]	8.70	1.51 nM	7.55	0.417 nM
CCC(O)c1ccc(C(=O)N2CCCN(C3CC3)CC2)cc1 (stereo not drawn) [Example 31, (4-Cyclopropyl-[1,4]diazepan-1-yl)-[4-(1-hydroxy-propyl)-phenyl]-methanone]	8.40		6.69	
CC(C)C(O)c1ccc(C(=O)N2CCCN(C3CC3)CC2)cc1 (stereo not drawn) [Example 32, (4-Cyclopropyl-[1,4]diazepan-1-yl)-[4-(1-hydroxy-2-methyl-propyl)-phenyl]-methanone]	8.52	12 nM		0.794 nM
CC(C)(C)c1ccc(C(=O)N2CCN(C3CCC3)CC2)cc1 [Example 33, (4-tert-Butyl-phenyl)-(4-cyclobutyl-piperazin-1-yl)-methanone]	8.30	13.5 nM	6.82	3.63 nM
O=C(c1ccc(C2CCCCC2)cc1)N1CCN(C2CCC2)CC1 [Example 36, (4-Cyclobutyl-piperazin-1-yl)-(4-cyclohexyl-phenyl)-methanone]	8.05		7.10	
